Measured values: article PMC10666275 (ACS Omega, 2023)
≈ marks a conversion by molar mass, not a printed value. Entries after “also recorded” stand apart in the source; their conditions may differ.

Assays:
MRSA [1] = assay: Agar diffusion method, inhibition zones, MRSA; assay type: cell-based, methicillin-resistant Staphylococcus aureus; settings: Staphylococcus aureus, 24 h, read-out: IZ (inhibition zone)
P. aeruginosa [2] = assay: Agar diffusion method, inhibition zones, P. aeruginosa; assay type: cell-based, Pseudomonas aeruginosa; settings: 24 h; for zone of inhibition at 10000 µg/mL: Pseudomonas aeruginosa, read-out: IZ (inhibition zone); for IZ (inhibition zone): P. aeruginosa, agar well diffusion, 100 μL of 10 mg/mL in DMSO, 37 °C
[3] = biological target: T1, dihydrofolate reductase (DHFR) enzyme (Homo sapiens, UniProt P00374); assay: In vitro DHFR inhibition assay; assay type: biochemical
T1 sequence (P00374 1-187): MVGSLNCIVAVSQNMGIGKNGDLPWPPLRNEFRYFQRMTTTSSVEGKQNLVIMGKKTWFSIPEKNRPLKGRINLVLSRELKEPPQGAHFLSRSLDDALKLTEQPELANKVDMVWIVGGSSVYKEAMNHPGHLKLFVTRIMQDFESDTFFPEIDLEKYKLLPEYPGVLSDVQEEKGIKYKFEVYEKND

MRSA [4] = assay: Resazurin-based 96-well plate microdilution MIC, MRSA; assay type: cell-based, methicillin-resistant Staphylococcus aureus; settings: Staphylococcus aureus, 24 h
P. aeruginosa [5] = assay: Resazurin-based 96-well plate microdilution MIC, P. aeruginosa; assay type: cell-based; settings: Pseudomonas aeruginosa, 24 h
MRSA-induced keratitis = MRSA-induced keratitis in rats; assay type: in vivo, rat (Sprague–Dawley)

Compound `COc1cc(C2=NNC(c3cn(-c4ccccc4)nc3-c3ccccc3)C2)cc(OC)c1OC` (stereo not drawn) [compound 6a, 1′,3′-Diphenyl-5-(3,4,5-trimethoxyphenyl)-3,4-dihydro-1′H,2H-3,4′-bipyrazole] has a zone of inhibition at 10000 µg/mL (MRSA [1]) of 15 mm, a zone of inhibition at 10000 µg/mL (P. aeruginosa [2]) of 6 mm and an IC50 [3] of 5.56 ± 0.27 µM.
For `COc1cc(C2=NN(C(C)=O)C(c3cn(-c4ccccc4)nc3-c3ccccc3)C2)cc(OC)c1OC` (stereo not drawn) [compound 7, 1-(1′,3′-Diphenyl-5-(3,4,5-trimethoxyphenyl)-3,4-dihydro-1′H,2H-[3,4′-bipyrazol]-2-yl)ethan-1-one], the zone of inhibition at 10000 µg/mL (MRSA [1]) was 11 mm, the “IZ (inhibition zone)” value (P. aeruginosa [2]) was “no detectable activity” and the zone of inhibition at 10000 µg/mL (P. aeruginosa [2]) was 0 mm. For the same compound, the IC50 [3] was 6.7 ± 0.31 µM.
`C[C@H]1COc2c(N3CCN(C)CC3)c(F)cc3c(=O)c(C(=O)O)cn1c23` [levofloxacin, reference compound] gave a zone of inhibition at 10000 µg/mL (MRSA [1]) of 31 mm, a zone of inhibition at 10000 µg/mL (P. aeruginosa [2]) of 27 mm and an MIC (MRSA [4]) of 346 µM (≈ 125 µg/mL). The MIC (P. aeruginosa [5]) was 1380 µM (≈ 500 µg/mL).
With `COc1cc(-c2cc(-c3cn(-c4ccccc4)nc3-c3ccccc3)[nH]c(=N)n2)cc(OC)c1OC` [compound 5c, 6-(1,3-Diphenyl-1H-pyrazol-4-yl)-4-(3,4,5-trimethoxyphenyl)pyrimidine-2(1H)-imine] the zone of inhibition at 10000 µg/mL (MRSA [1]) was 28 mm, the zone of inhibition at 10000 µg/mL (P. aeruginosa [2]) was 24 mm and the MIC (MRSA [4]) was 521 µM (≈ 250 µg/mL). For the same compound, the MIC (P. aeruginosa [5]) was 2080 µM (≈ 1000 µg/mL), the IC50 [3] was 4 ± 0.18 µM and the “area % of corneal opacity (infection intensity)” value (MRSA-induced keratitis; 5c dispersion, versus MRSA group) was “significantly (P < 0.0001) reduced infection in rats; also recorded: significant reduction in the area % of corneal opacity”. For the same compound, the inflammation score (MRSA-induced keratitis; H&E cornea, score 0-4, versus MRSA group) was “significant decrease in inflammation score” and the “corneal inflammation, histological evaluation (H&E)” value (MRSA-induced keratitis; MRSA/5c dispersion group compared to MRSA group) was “mild to moderate inflammatory cell infiltration”.
`COc1cc(-c2cc(-c3cn(-c4ccccc4)nc3-c3ccccc3)[nH]c(=S)n2)cc(OC)c1OC` [compound 5b, 6-(1,3-Diphenyl-1H-pyrazol-4-yl)-4-(3,4,5-trimethoxyphenyl)pyrimidine-2(1H)-thione] was tested, and the zone of inhibition at 10000 µg/mL (MRSA [1]) was 23 mm, the zone of inhibition at 10000 µg/mL (P. aeruginosa [2]) was 20 mm and the MIC (MRSA [4]) was 1010 µM (≈ 500 µg/mL). It also gave an MIC (P. aeruginosa [5]) of 4030 µM (≈ 2000 µg/mL) and an IC50 [3] of 4.1 ± 0.19 µM.
In the case of `COc1cc(C(=O)/C=C\c2cn(-c3ccccc3)nc2-c2ccccc2)cc(OC)c1OC` [compound 4, (Z)-3-(1,3-Diphenyl-1H-pyrazol-4-yl)-1-(3,4,5-trimethoxyphenyl)prop-2-en-1-one], the zone of inhibition at 10000 µg/mL (MRSA [1]) is reported as 17 mm, the zone of inhibition at 10000 µg/mL (P. aeruginosa [2]) is reported as 15 mm and the IC50 [3] is reported as 5 ± 0.23 µM.
`COc1cc(-c2cc(-c3cn(-c4ccccc4)nc3-c3ccccc3)[nH]c(=O)n2)cc(OC)c1OC` [compound 5a, 6-(1,3-Diphenyl-1H-pyrazol-4-yl)-4-(3,4,5-trimethoxyphenyl)pyrimidine-2(1H)-one] was tested, and the zone of inhibition at 10000 µg/mL (MRSA [1]) was 25 mm, the zone of inhibition at 10000 µg/mL (P. aeruginosa [2]) was 22 mm and the MIC (MRSA [4]) was 2080 µM (≈ 1000 µg/mL). For the same compound, the MIC (P. aeruginosa [5]) was 8320 µM (≈ 4000 µg/mL) and the IC50 [3] was 4.2 ± 0.2 µM.
With `COc1cc(C2=NN(c3ccccc3)C(c3cn(-c4ccccc4)nc3-c3ccccc3)C2)cc(OC)c1OC` (stereo not drawn) [compound 6b, 1′,2,3′-Triphenyl-5-(3,4,5-trimethoxyphenyl)-3,4-dihydro-1′H,2H-3,4′-bipyrazole] the zone of inhibition at 10000 µg/mL (MRSA [1]) was 6 mm, the “IZ (inhibition zone)” value (P. aeruginosa [2]) was “no detectable activity” and the zone of inhibition at 10000 µg/mL (P. aeruginosa [2]) was 0 mm. For the same compound, the IC50 [3] was 6.45 ± 0.31 µM.
